Source: ChEMBL document CHEMBL1130256, “1-[1-2-Benzo[b]thiopheneyl)cyclohexyl]piperidine hydrochloride (BTCP) yields two active primary metabolites in vitro: synthesis, identification from rat liver microsome extracts, and affinity for the neuronal dopamine transporter” (J Med Chem, 1997)

Key:
[1] = biological target: Sodium-dependent dopamine transporter (Rattus norvegicus, UniProt P23977); test: Inhibitory activity of compound against [3H]BTCP binding to neuronal dopamine transporter of rat striatal membrane
[2] = Amount of metabolites in the microsomal medium after 90 min incubation of BTCP (500 uM); assay type: ADME, Microsome; settings: microsomes, 1.5 h

Sequence of Sodium-dependent dopamine transporter (P23977 whole entry): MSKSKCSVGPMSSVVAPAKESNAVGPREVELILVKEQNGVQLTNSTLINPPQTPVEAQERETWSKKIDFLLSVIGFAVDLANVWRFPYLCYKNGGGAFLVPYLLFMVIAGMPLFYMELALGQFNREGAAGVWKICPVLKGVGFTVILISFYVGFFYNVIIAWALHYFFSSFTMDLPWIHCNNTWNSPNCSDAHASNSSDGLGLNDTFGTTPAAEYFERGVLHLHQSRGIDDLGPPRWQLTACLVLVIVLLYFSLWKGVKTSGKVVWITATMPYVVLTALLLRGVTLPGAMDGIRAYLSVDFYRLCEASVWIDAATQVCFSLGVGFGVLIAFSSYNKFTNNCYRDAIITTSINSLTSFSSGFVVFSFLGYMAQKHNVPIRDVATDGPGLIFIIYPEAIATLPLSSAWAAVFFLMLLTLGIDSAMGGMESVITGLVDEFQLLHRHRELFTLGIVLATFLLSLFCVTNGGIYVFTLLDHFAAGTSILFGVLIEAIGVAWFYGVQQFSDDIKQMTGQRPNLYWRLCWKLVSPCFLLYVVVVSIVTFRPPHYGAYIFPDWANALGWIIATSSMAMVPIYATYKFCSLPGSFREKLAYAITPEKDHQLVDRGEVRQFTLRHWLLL

| SMILES | IC50 [1] [nM] | Amount [2] |
| --- | --- | --- |
| OC1CCCN(C2(c3cc4ccccc4s3)CCCCC2)C1 (stereo not given) | 1.75 | 147 pmol |
| OC1CCN(C2(c3cc4ccccc4s3)CCCCC2)CC1 | – | 615 pmol |
| O[C@@H]1CCC[C@@](c2cc3ccccc3s2)(N2CCCCC2)C1 | – | 4 pM |
| OC1(c2cc3ccccc3s2)CCCCC1 | – | 141 pmol |
